We go through 23 compounds from US8383637B2, “2-amino-quinazoline derivatives useful as inhibitors of β-secretase (BACE)” (Jansssen Pharmaceutica N.V., priority 2004, dated 2013).

Common to all, as to type: biochemical
Assay [1] deals with T1, β-secretase(BACE) (Homo sapiens, UniProt P56817).
T1 construct: purchased Panvera
Put plainly: BACE % Inhibition Assay ((Aedens)-[…]-(Dabcyl K-amide) substrate). The note with it: % error ±10%; for inhibition at 3 µM / inhibition at 10 µM: read-out: % Inhibition; for inhibition at 10 µM: 10 μM test compound; for inhibition at 0.3 µM: 0.3 μM test compound; for inhibition at 1 µM: 1 μM test compound. The procedure: The substrate stock solution was prepared in DMSO as a 10 mg/mL solution. The substrate working solution was prepared by diluting the 10 mg/mL stock solution with substrate assay buffer to a final concentration of 300 μg/mL. The β-secretase (BACE) working solution was prepared by diluting a 0.83 mg/mL BACE stock solution with enzyme assay buffer to a final concentration of 4 μg/mL.
Test compounds were dissolved in DMSO to 10 mM.
The screening procedure for this assay was as follows: 15 μL of BACE working solution was pipetted into each well of a 96-well plate. To each well was then pipetted 2 μL of test compound at the selected concentration. Test compound and BACE were then mixed with a pipettor and incubated for 20 min at room temperature. To each well was then added 10 μL of the substrate working solution. The plates were then incubated for 1 hour at room temperature.
The procedure for the blank was as follows. 15 μL of assay buffer was pipetted into each well to be used as a blank control. To each well was then added 2 μL of vehicle and 10 μL of substrate working solution. The plates were then incubated for 1 hour at room temperature.
The procedure for the positive control was as follows: 15 μl of BACE working solution was pipetted into each well to be used as a positive control. To each well was then pipetted 2 μL of vehicle. Vehicle and BACE were then mixed with a pipettor and incubated for 20 min at room temperature. To each well was then added 10 μL of the substrate working solution. The plates were then incubated for 1 hour at room temperature.
For test compounds, % inhibition was determined at each concentration as follows: […]

Assay [2] addresses T1, β-secretase(BACE). Put plainly: BACE Assay-1 (MCA-substrate, IC50). The following applies: procedure of Example 158; read-out: IC50 μM (158). In outline:
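Human BACE (work solution 10 μg/mL) with MCA-peptide substrate (stock 2.0 mg/mL) in 0.05 M citrate buffer, pH 5.0, with PEG8000. Fluorescence read at T0 and T60; compounds tested at multiple concentrations and IC50 calculated from these readings.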

Assay [3] deals with T1, β-secretase(BACE). Put plainly: BACE Assay-2 (FS1 substrate, IC50 and Ki). The following applies: procedure of Example 159, FS1 substrate; for Ki: read-out: Ki μM (159).

The structures appear in SMILES notation. “And” between values parts separate entries of the source, which are not always exact repeats. Identical values can stand only once.

T1 sequence (P56817 46-501): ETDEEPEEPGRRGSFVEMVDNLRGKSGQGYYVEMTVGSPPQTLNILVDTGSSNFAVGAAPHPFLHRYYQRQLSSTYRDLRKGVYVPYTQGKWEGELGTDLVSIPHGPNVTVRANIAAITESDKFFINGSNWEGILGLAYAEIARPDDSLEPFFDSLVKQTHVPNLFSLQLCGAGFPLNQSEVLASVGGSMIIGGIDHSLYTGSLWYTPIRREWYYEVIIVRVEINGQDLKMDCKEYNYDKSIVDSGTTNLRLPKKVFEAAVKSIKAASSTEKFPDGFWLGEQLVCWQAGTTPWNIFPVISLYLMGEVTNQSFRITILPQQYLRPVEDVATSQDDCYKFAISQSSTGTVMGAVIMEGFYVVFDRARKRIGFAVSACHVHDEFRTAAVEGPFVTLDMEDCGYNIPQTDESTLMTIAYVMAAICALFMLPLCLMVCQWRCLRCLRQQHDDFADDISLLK

Broadly, the inhibition is the drop in the measured response relative to a control, in per cent. As a reminder, the IC50 is the concentration needed to halve the response being measured. As a reminder, the Ki is the equilibrium dissociation constant of an inhibitor or competing ligand from its target. Take `CN(C(=O)CCN1Cc2cc(Oc3ccccc3)ccc2N=C1N)C1CCCCC1` [Compound 20, 3-(2-Amino-6-phenoxy-4H-quinazolin-3-yl)-N-cyclohexyl-N-methyl-propionamide]: the inhibition at 3 µM on β-secretase(BACE) [1] (3 μM test compound) is 68%. On β-secretase(BACE) [1], the inhibition at 10 µM amounted to 83%. Further, the IC50 on β-secretase(BACE) [2] amounted to 0.48 µM. Also, at β-secretase(BACE) [3], it took 2.1 µM to reach half-maximal inhibition (IC50) and the Ki is 0.34 µM.
The matching figures for `CN(CCN1Cc2cc(C(=O)c3ccccc3)ccc2N=C1N)C(=O)C1CCCCC1` [Compound 23]: 47%, 76%, 4.9 µM, 10 µM and 1.1 µM.
The matching figures for `CN(C(=O)CCCCN1Cc2cc(C(=O)c3ccccc3)ccc2N=C1N)C1CCCCC1` [Compound 27]: 63%, 81%, 1.2 µM, 3 µM and 0.66 µM.
Take `NC1=Nc2ccc(C(=O)c3ccccc3)cc2CN1CCCCNC(=O)C1CCCCC1` [Compound 30]: the inhibition at 3 µM at β-secretase(BACE) [1] (3 μM test compound) is 32%. Besides, the inhibition at 10 µM at β-secretase(BACE) [1] amounted to 48%. The concentration for half-maximal inhibition (IC50) stood at 11 µM on β-secretase(BACE) [2] and 20 µM on β-secretase(BACE) [3]. Besides, on β-secretase(BACE) [3], the Ki was found to be 2.3 µM.
The matching figures for `NC1=Nc2ccc(C(=O)c3ccccc3)cc2CN1CCCCC(=O)N(C1CCCCC1)C1CCCCC1` [Compound 46]: 66%, 82%, 0.6 µM, 2.1 µM and 0.6 µM.
For `CCCN1Cc2cc(Oc3cccc(N(C(=O)OCc4ccccc4)C4CCCCC4)c3)ccc2N=C1N` [Compound 49], in that order: 56%, 90%, 0.8 µM, 2.8 µM and 0.84 µM.
For `CN(CCc1ccccc1)C(=O)CCCCN1Cc2cc(C(=O)c3ccccc3)ccc2N=C1N` [Compound 50], in that order: under 30%, 34%, 1 µM, 11 µM and 0.53 µM.
As for `CN(Cc1cccc2ccccc12)C(=O)CCCCN1Cc2cc(C(=O)c3ccccc3)ccc2N=C1N` [Compound 51], at β-secretase(BACE) [1] (3 μM test compound), the inhibition at 3 µM is under 30%. For the same compound, the inhibition at 10 µM on β-secretase(BACE) [1] was determined as 56%. For the same compound, the half-maximal inhibitory concentration (IC50) on β-secretase(BACE) [2] turned out to be 2.2 µM. For the same compound, at β-secretase(BACE) [3], the IC50 came out at 13 µM and the Ki is 1.2 µM.
For `CCCN1Cc2cc(Oc3cccc(NC4CCCCC4)c3)ccc2N=C1N` [Compound 53], in that order: 34%, 82%, 1 µM, 6.8 µM and 0.82 µM.
For `CCCN1Cc2cc(Oc3cccc(NCC4CCCCC4)c3)ccc2N=C1N` [Compound 55], in that order: 62%, 95%, 0.28 µM, 2.4 µM and 0.79 µM.
The matching figures for `CCCN1Cc2cc(Oc3cccc(NS(=O)(=O)c4ccccc4)c3)ccc2N=C1N` [Compound 61]: 75%, 87%, 0.2 µM, 0.44 µM and 0.23 µM.
For `CCCN1Cc2cc(Oc3cccc(NC(=O)OCc4ccccc4)c3)ccc2N=C1N` [Compound 67], the inhibition at 3 µM at β-secretase(BACE) [1] (3 μM test compound) was found to be 44%. In addition, the inhibition at 10 µM on β-secretase(BACE) [1] stood at 71%. For the same compound, the IC50 was 0.68 µM on β-secretase(BACE) [2] and 3.9 µM at β-secretase(BACE) [3]. In addition, the Ki on β-secretase(BACE) [3] worked out at 0.81 µM.
For `CC(C)(C)OC(=O)NCCN1Cc2cc(Oc3ccccc3)ccc2N=C1N` [Compound 80], in that order: 61%, 80%, 0.11 µM, 0.94 µM and 0.12 µM.
The matching figures for `CN(C(=O)CCC(CCC(=O)N(C)C1CCCCC1)N1Cc2cc(Oc3ccccc3)ccc2N=C1N)C1CCCCC1` [Compound 84, 4-(2-Amino-6-phenoxy-4H-quinazolin-3-yl)-heptanedioic acid bis-(cyclohexyl-methyl-amide)]: 38%, 63%, 0.47 µM, 3.1 µM and 0.76 µM.
For `NC1=Nc2ccc(Oc3ccccc3)cc2CN1CCCNC(=O)C1CCCCC1` [Compound 108], in that order: 73%, 90%, 0.32 µM, 0.954 µM and 0.076 µM.
A word on the % Inhibition: it is the drop in the measured response relative to a control, in per cent. In the case of `NC1=Nc2ccc(Oc3ccccc3)cc2CN1CCNC(=O)C1CCCCC1` [Compound 111, Cyclohexanecarboxylic acid [2-(2-amino-6-phenoxy-4H-quinazolin-3-yl)-ethyl]-amide], at β-secretase(BACE) [1], the inhibition at 0.3 µM is 63%, the inhibition at 1 µM came out at 96% and the inhibition at 10 µM was determined as 94%. In addition, the “% Inhibition” value at β-secretase(BACE) [1] (3 μM test compound, 3 µM) was 84% and 115%. In addition, the IC50 at β-secretase(BACE) [2] was 0.1 µM. Besides, at β-secretase(BACE) [3], the Ki is 0.082 µM and 0.067 µM.
As for `NC1=Nc2ccc(Oc3ccccc3)cc2CN1CCNC(=O)C1CCCC1` [Compound 112], on β-secretase(BACE) [1] (3 μM test compound), the inhibition at 3 µM is 88%. Moreover, on β-secretase(BACE) [1], the inhibition at 10 µM was found to be 92%. The half-maximal inhibitory concentration (IC50) at β-secretase(BACE) [2] was determined as 0.12 µM. In addition, the inhibition constant Ki at β-secretase(BACE) [3] turned out to be 0.59 µM.
For the compound `CCCC(CNC(=O)OC(C)(C)C)N1Cc2cc(Oc3ccccc3)ccc2N=C1N` (stereo not shown) [Compound 318], on β-secretase(BACE) [1], the inhibition at 0.3 µM was found to be 32% and the inhibition at 1 µM was found to be 70%. Moreover, the inhibition at 3 µM on β-secretase(BACE) [1] (3 μM test compound) was 103%. In addition, the 50% inhibitory concentration (IC50) on β-secretase(BACE) [2] was determined as 0.25 µM. In addition, the Ki on β-secretase(BACE) [3] was determined as 0.19 µM.
For the compound `NC1=Nc2ccc(Oc3ccccc3)cc2CN1C(CNC(=O)c1ccccc1)C1CCCCC1` (stereo not shown) [Compound 319], on β-secretase(BACE) [1], the inhibition at 0.3 µM came out at 61% and the inhibition at 1 µM was determined as 95%. The inhibition at 3 µM on β-secretase(BACE) [1] (3 μM test compound) came to 120%. Further, the IC50 on β-secretase(BACE) [2] stood at 0.053 µM. Further, the Ki at β-secretase(BACE) [3] was determined as 0.074 µM.
The matching figures for `NC1=Nc2ccc(Oc3ccccc3)cc2CN1C(CNC(=O)C1CCCCC1)c1ccccc1` (stereo not shown) [Compound 342]: 50%, 93%, 119%, 0.082 µM and 0.19 µM.
In the case of `CCCC(CNC(=O)C1CCCCC1)N1Cc2cc(Oc3ccccc3)ccc2N=C1N` (stereo not shown) [Compound 343], at β-secretase(BACE) [1], the inhibition at 0.3 µM was 81% and the inhibition at 1 µM is 101%. Moreover, the inhibition at 3 µM at β-secretase(BACE) [1] (3 μM test compound) amounted to 118%. In addition, on β-secretase(BACE) [2], the IC50 was 0.041 µM. Further, the inhibition constant Ki at β-secretase(BACE) [3] turned out to be 0.065 µM.
For `NC1=Nc2ccc(Oc3ccccc3)cc2CN1C(CCNC(=O)C1CCCCC1)C1CCCCC1` (stereo not shown) [Compound 391], in that order: 35%, 93%, 115%, 0.054 µM and 0.1 µM.
For `NC1=Nc2ccc(Oc3ccccc3)cc2CN1C(CCNC(=O)C1CCCC1)C1CCCCC1` (stereo not shown) [Compound 392], at β-secretase(BACE) [1], the inhibition at 0.3 µM turned out to be 75% and the inhibition at 1 µM amounted to 116%. The inhibition at 3 µM at β-secretase(BACE) [1] (3 μM test compound) came out at 120%. Further, on β-secretase(BACE) [2], the IC50 came to 0.093 µM. At β-secretase(BACE) [3], the inhibition constant Ki was 0.16 µM.
